Experimental data reported in patent US20250296959A1, “B7-H3 TARGETING PEPTIDES AND CONSTRUCTS THEREOF” (Mariana Oncology Inc., priority 2024, published 2025).
Starred links: 1 amine or outer side, 2 acyl side, 3 side chain; linkers in the order of their positions; H or OH if unused. Positions of bridges follow the written chain, without caps; N, C: chain ends. Non-standard residues stand in square brackets, D forms with d. Residues, ends and D or L forms follow the SMILES beside them. Groups on a side chain read outwards from the residue. *: point of attachment. Ala(1-CH2CO2H-4-piperidyl) = N[C@@H](CC1CCN(CC(=O)O)CC1)C(=O)O; Ala(piperidin-4-yl) = O=C([C@H](CC1CCN([*:3])CC1)N[*:1])[*:2]; Phe(3-CH2NH2) = O=C([C@H](Cc1cccc(CN[*:3])c1)N[*:1])[*:2]; DOTA = O=C(O)CN1CCN(CC(=O)O)CCN(CC(=O)*)CCN(CC(=O)O)CC1; NH(CH2CH2O)4CH2CO = O=C(COCCOCCOCCOCCN[*:1])[*:2]; Phe(4-NHCONH2) = NC(=O)Nc1ccc(C[C@H](N)C(=O)O)cc1; Trp(5-F) = N[C@@H](Cc1c[nH]c2ccc(F)cc12)C(=O)O; X1 = C[C@@H](c1ccccc1)[C@H](N[*:1])C(=O)[*:2]; Pro(cis-4-F) = O=C(O)[C@@H]1C[C@H](F)CN1; Phe(4-F) = N[C@@H](Cc1ccc(F)cc1)C(=O)O; γGlu = O=C(O)[C@H](CCC(=O)[*:2])N[*:1]; 1Nal = N[C@@H](Cc1cccc2ccccc12)C(=O)O; Ala(4-THP) = N[C@@H](CC1CCOCC1)C(=O)O; Val(3-OH) = CC(C)(O)[C@H](N)C(=O)O; 4Pal = N[C@@H](Cc1ccncc1)C(=O)O; Tle = CC(C)(C)[C@H](N)C(=O)O; hLeu = CC(C)CC[C@H](N)C(=O)O; Nle = CCCC[C@H](N)C(=O)O

Molecular target: T1, human 4lg B7-H3 (Homo sapiens, UniProt Q5ZPR3)
T1 sequence (Q5ZPR3 29-534): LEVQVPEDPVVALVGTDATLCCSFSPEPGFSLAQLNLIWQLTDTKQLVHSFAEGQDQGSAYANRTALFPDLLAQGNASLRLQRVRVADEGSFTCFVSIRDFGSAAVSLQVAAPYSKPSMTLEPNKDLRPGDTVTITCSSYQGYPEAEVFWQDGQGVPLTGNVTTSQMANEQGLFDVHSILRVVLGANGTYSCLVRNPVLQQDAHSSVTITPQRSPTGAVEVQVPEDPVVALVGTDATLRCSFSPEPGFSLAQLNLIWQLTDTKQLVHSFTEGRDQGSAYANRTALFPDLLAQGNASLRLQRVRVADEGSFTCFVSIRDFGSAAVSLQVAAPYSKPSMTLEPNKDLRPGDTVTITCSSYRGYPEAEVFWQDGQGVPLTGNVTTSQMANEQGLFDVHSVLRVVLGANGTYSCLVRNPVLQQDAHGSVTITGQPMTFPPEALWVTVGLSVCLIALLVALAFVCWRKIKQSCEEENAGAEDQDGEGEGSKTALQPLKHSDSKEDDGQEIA
Assay: Affinity determination by surface plasmon resonance (SPR) to 4Ig B7-H3
Details: 4Ig B7-H3

[1] = SPR KD—25° C., 25° C. flow cell temperature
[2] = SPR KD—37° C., 37° C. flow cell temperature

SMILES | Kd [1] [nM] | Kd [2] [nM]
CC(=O)N[C@@H](CCC(C)C)C(=O)N[C@@H](Cc1ccc(O)cc1)C(=O)N[C@H]1CSSC[C@@H](C(=O)N[C@@H](Cc2c[nH]c3ccc(F)cc23)C(=O)N[C@@H](Cc2ccccc2)C(=O)N[C@H](C(=O)N[C@H](CCCCNC(=O)CN2CCN(CC(=O)O)CCN(CC(=O)O)CCN(CC(=O)O)CC2)C(=O)O)[C@@H](C)O)NC(=O)[C@H](Cc2ccc(O)cc2)NC(=O)[C@H](C(C)C)NC(=O)[C@H](CC(=O)O)NC(=O)[C@H](CC2CCOCC2)NC(=O)[C@H](CCCCN)NC(=O)CNC(=O)[C@H](C(C)(C)C)NC1=O [compound 332, Ac-hLeu-Y-C-Tbg-G-K-ThpA-D-V-Y-C-5FW-F-Thr-dLys(DOTA)-COOH] (Ac-[hLeu]YC[Tle]GK[Ala(4-THP)]DVYC[Trp(5-F)]FT[dK](DOTA)-OH; disulfide 3-11) | < 1 | 
CC(=O)N[C@@H](CCC(C)C)C(=O)N[C@@H](Cc1ccc(O)cc1)C(=O)N[C@H]1CSSC[C@@H](C(=O)N[C@@H](Cc2cccc3ccccc23)C(=O)N[C@@H](Cc2ccccc2)C(=O)N2C[C@@H](F)C[C@H]2C(=O)O)NC(=O)[C@H](Cc2ccc(O)cc2)NC(=O)[C@H](C(C)C)NC(=O)[C@H](CC(=O)O)NC(=O)[C@H](Cc2ccncc2)NC(=O)[C@H](CCCCNC(=O)CN2CCN(CC(=O)O)CCN(CC(=O)O)CCN(CC(=O)O)CC2)NC(=O)CNC(=O)[C@H](C(C)(C)C)NC1=O [compound 263, Ac-hLeu-Y-C-Tbg-G-Lys(DOTA)-4PyA-D-V-Y-C-1Nal-F-cis4FPro-CONH2] (Ac-[hLeu]YC[Tle]GK(DOTA)[4Pal]DVYC[1Nal]F[Pro(cis-4-F)]-OH; disulfide 3-11) | 10 to 100 | 
CC(=O)N[C@@H](CCC(C)C)C(=O)N[C@@H](Cc1ccc(O)cc1)C(=O)N[C@H]1CSSC[C@@H](C(=O)N[C@@H](Cc2c[nH]c3ccc(F)cc23)C(=O)N[C@@H](Cc2ccccc2)C(=O)N2CCC[C@H]2C(=O)N[C@H](CCCCNC(=O)CN2CCN(CC(=O)O)CCN(CC(=O)O)CCN(CC(=O)O)CC2)C(N)=O)NC(=O)[C@H](Cc2ccc(O)cc2)NC(=O)[C@H](C(C)C)NC(=O)[C@H](CC(=O)O)NC(=O)[C@H](CC2CCOCC2)NC(=O)[C@H](CCCCN)NC(=O)CNC(=O)[C@H](C(C)C)NC1=O [compound 271, Ac-hLeu-Y-C-V-G-K-ThpA-D-V-Y-C-5FW-F-Pro-dLys(DOTA)-CONH2] (Ac-[hLeu]YCVGK[Ala(4-THP)]DVYC[Trp(5-F)]FP[dK](DOTA)-NH2; disulfide 3-11) | < 1 | 
CC(=O)N[C@@H](CCC(C)C)C(=O)N[C@@H](Cc1ccc(O)cc1)C(=O)N[C@H]1CSSC[C@@H](C(=O)N[C@@H](Cc2c[nH]c3ccc(F)cc23)C(=O)N[C@@H](Cc2ccccc2)C(=O)N[C@H](C(=O)N[C@H](CCCCNC(=O)CN2CCN(CC(=O)O)CCN(CC(=O)O)CCN(CC(=O)O)CC2)C(=O)O)C(C)(C)O)NC(=O)[C@H](Cc2ccc(O)cc2)NC(=O)[C@H]([C@@H](C)O)NC(=O)[C@H](CC(=O)O)NC(=O)[C@H](CC2CCOCC2)NC(=O)[C@H](CCCCN)NC(=O)CNC(=O)[C@H](C(C)(C)C)NC1=O [compound 377, Ac-hLeu-Y-C-Tbg-G-K-ThpA-D-Thr-Y-C-5FW-F-hydroxyVal-dLys(DOTA)-COOH] (Ac-[hLeu]YC[Tle]GK[Ala(4-THP)]DTYC[Trp(5-F)]F[Val(3-OH)][dK](DOTA)-OH; disulfide 3-11) |  | 10 to 100
CC(=O)N[C@@H](CCC(C)C)C(=O)N[C@@H](Cc1ccc(O)cc1)C(=O)N[C@H]1CSSC[C@@H](C(=O)N[C@@H](Cc2cccc3ccccc23)C(=O)N[C@@H](Cc2ccccc2)C(=O)N2CCC[C@H]2C(N)=O)NC(=O)[C@H](Cc2ccc(O)cc2)NC(=O)[C@H](C(C)C)NC(=O)[C@H](CC(=O)O)NC(=O)[C@H](Cc2cccc(CNC(=O)CC[C@H](NC(=O)CC[C@H](NC(=O)CC[C@H](NC(=O)CN3CCN(CC(=O)O)CCN(CC(=O)O)CCN(CC(=O)O)CC3)C(=O)O)C(=O)O)C(=O)O)c2)NC(=O)[C@H](CCCCN)NC(=O)CNC(=O)[C@H](C(C)(C)C)NC1=O [compound 258, Ac-hLeu-Y-C-Tbg-G-K-MAF(gE-gE-gE-DOTA)-D-V-Y-C-1Nal-F-Pro-CONH2] (Ac-[hLeu]YC[Tle]GK[Phe(3-CH2NH2)]([γGlu-γGlu-γGlu-DOTA])DVYC[1Nal]FP-NH2; disulfide 3-11) | 1 to 10 | 
CC(=O)N[C@@H](CCC(C)C)C(=O)N[C@@H](Cc1ccc(O)cc1)C(=O)N[C@H]1CSSC[C@@H](C(=O)N[C@@H](Cc2c[nH]c3ccc(F)cc23)C(=O)N[C@@H](Cc2ccccc2)C(=O)N2CCC[C@H]2C(=O)N[C@H](CCCCNC(=O)CN2CCN(CC(=O)O)CCN(CC(=O)O)CCN(CC(=O)O)CC2)C(=O)O)NC(=O)[C@H](Cc2ccc(O)cc2)NC(=O)[C@H](C(C)C)NC(=O)[C@H](CC(=O)O)NC(=O)[C@H](CC2CCOCC2)NC(=O)[C@H](CC2CCN(CC(=O)O)CC2)NC(=O)CNC(=O)[C@H](C(C)(C)C)NC1=O [compound 319, Ac-hLeu-Y-C-Tbg-G-[Pip(CH2CO2H)Ala]-ThpA-D-V-Y-C-5FW-F-Pro-dLys(DOTA)-COOH] (Ac-[hLeu]YC[Tle]G[Ala(1-CH2CO2H-4-piperidyl)][Ala(4-THP)]DVYC[Trp(5-F)]FP[dK](DOTA)-OH; disulfide 3-11) |  | 1 to 10
CC(=O)N[C@@H](CCC(C)C)C(=O)N[C@@H](Cc1ccc(O)cc1)C(=O)N[C@H]1CSSC[C@@H](C(=O)N[C@@H](Cc2c[nH]c3ccccc23)C(=O)N[C@@H](Cc2ccccc2)C(=O)N[C@H](C(=O)N[C@H](CCCCNC(=O)CN2CCN(CC(=O)O)CCN(CC(=O)O)CCN(CC(=O)O)CC2)C(N)=O)C(C)(C)O)NC(=O)[C@H](Cc2ccc(O)cc2)NC(=O)[C@H](C(C)C)NC(=O)[C@H](CC(=O)O)NC(=O)[C@H](Cc2ccc(O)cc2)NC(=O)[C@H](CCCCN)NC(=O)CNC(=O)[C@H](C(C)C)NC1=O [compound 149, Ac-hLeu-Y-C-V-G-K-Y-D-V-Y-C-W-F-hydroxyVal-dLys(DOTA)-CONH2] (Ac-[hLeu]YCVGKYDVYCWF[Val(3-OH)][dK](DOTA)-NH2; disulfide 3-11) | < 1 | 
CCCC[C@H](NC(=O)[C@H](Cc1c[nH]c2ccc(F)cc12)NC(=O)[C@@H]1CSSC[C@H](NC(=O)[C@H](Cc2ccc(O)cc2)NC(=O)[C@H](CCC(C)C)NC(C)=O)C(=O)N[C@@H](C(C)(C)C)C(=O)NCC(=O)N[C@@H](CCCCNC(=O)CN2CCN(CC(=O)O)CCN(CC(=O)O)CCN(CC(=O)O)CC2)C(=O)N[C@@H](CC2CCOCC2)C(=O)N[C@@H](CC(=O)O)C(=O)N[C@@H](C(C)C)C(=O)N[C@@H](Cc2ccc(O)cc2)C(=O)N1)C(=O)N[C@H](C(N)=O)C(C)(C)O [compound 336, Ac-hLeu-Y-C-Tbg-G-Lys(DOTA)-ThpA-D-V-Y-C-5FW-Nle-hydroxyVal-CONH2] (Ac-[hLeu]YC[Tle]GK(DOTA)[Ala(4-THP)]DVYC[Trp(5-F)][Nle][Val(3-OH)]-NH2; disulfide 3-11) |  | 10 to 100
CC(=O)N[C@@H](CCC(C)C)C(=O)N[C@@H](Cc1ccc(O)cc1)C(=O)N[C@H]1CSSC[C@@H](C(=O)N[C@@H](Cc2c[nH]c3ccccc23)C(=O)N[C@@H](Cc2ccccc2)C(=O)N[C@H](C(N)=O)[C@@H](C)O)NC(=O)[C@H](Cc2ccc(O)cc2)NC(=O)[C@H](CCCCNC(=O)CN2CCN(CC(=O)O)CCN(CC(=O)O)CCN(CC(=O)O)CC2)NC(=O)[C@H](CC(=O)O)NC(=O)[C@H](Cc2ccc(O)cc2)NC(=O)[C@H](CCCCN)NC(=O)CNC(=O)[C@H](C(C)C)NC1=O [compound 143, Ac-hLeu-Y-C-V-G-K-Y-D-Lys(DOTA)-Y-C-W-F-Thr-CONH2] (Ac-[hLeu]YCVGKYDK(DOTA)YCWFT-NH2; disulfide 3-11) | 10 to 100 | 
CC(C)CC[C@H](NC(=O)COCCOCCOCCOCCNC(=O)CN1CCN(CC(=O)O)CCN(CC(=O)O)CCN(CC(=O)O)CC1)C(=O)N[C@@H](Cc1ccc(F)cc1)C(=O)N[C@H]1CSSC[C@@H](C(=O)N[C@@H](Cc2cccc3ccccc23)C(=O)N[C@@H](Cc2ccccc2)C(=O)N2CCC[C@H]2C(N)=O)NC(=O)[C@H](Cc2ccc(O)cc2)NC(=O)[C@H](C(C)C)NC(=O)[C@H](CC(=O)O)NC(=O)[C@H](CC2CCOCC2)NC(=O)[C@H](CC2CCNCC2)NC(=O)CNC(=O)[C@H](C(C)(C)C)NC1=O [compound 283, DOTA-PEG4-hLeu-4FPhe-C-Tbg-G-PipAla-ThpA-D-V-Y-C-1Nal-F-Pro-CONH2] ({DOTA}-[NH(CH2CH2O)4CH2CO][hLeu][Phe(4-F)]C[Tle]G[Ala(piperidin-4-yl)][Ala(4-THP)]DVYC[1Nal]FP-NH2; disulfide 4-12) | 10 to 100 | 
CC(=O)N[C@@H](CCC(C)C)C(=O)N[C@@H](Cc1ccc(O)cc1)C(=O)N[C@H]1CSSC[C@@H](C(=O)N[C@@H](Cc2c[nH]c3ccc(F)cc23)C(=O)N[C@H](C(=O)N[C@H](C(=O)N[C@H](CCCCNC(=O)CN2CCN(CC(=O)O)CCN(CC(=O)O)CCN(CC(=O)O)CC2)C(=O)O)C(C)(C)O)[C@@H](C)c2ccccc2)NC(=O)[C@H](Cc2ccc(NC(N)=O)cc2)NC(=O)[C@H](C(C)C)NC(=O)[C@H](CC(=O)O)NC(=O)[C@H](CC2CCOCC2)NC(=O)[C@H](CC2CCNCC2)NC(=O)CNC(=O)[C@H](C(C)(C)C)NC1=O [compound 506, Ac-hLeu-Y-C-Tbg-G-PipAla-ThpA-D-V-Aph(Cbm)-C-5FW-[(2S, 3S)beta-Me-Phe]-hydroxyVal-dLys(DOTA)-COOH] (Ac-[hLeu]YC[Tle]G[Ala(piperidin-4-yl)][Ala(4-THP)]DV[Phe(4-NHCONH2)]C[Trp(5-F)][X1][Val(3-OH)][dK](DOTA)-OH; disulfide 3-11) |  | < 1
